Reference: patent US6525059B1, “Substituted pyrazoles as p38 kinase inhibitors” (G. D. Searle & Company, priority 1998, dated 2003)
Like-named read-outs stand apart in the source and are kept apart here.

Experiments:
[1] = system: TNF-α; assay: LPS stimulation of TNF production by U937 cells; format: cell-based, human; settings: for inhibition at 1 µM / IC50: Homo sapiens; for inhibition at 1 µM: U-937, @ 1.0 uM, read-out: U937 Cell % inhib @ conc.; for U937 Cell % inhib @ conc.: @ 1.0 uM
Summary of the method: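 PMA-differentiated human U937 cells (20 ng/ml PMA, 24 h, then 24-48 h rest) at 2 million cells/ml, 0.1% DMSO final, stimulated with E. coli LPS (100 ng/ml final) for 4 h at 37° C. TNF-α in medium measured by ELISA; IC50 in μM.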

[2] = target: T1, human p38 kinase alpha (Homo sapiens, UniProt Q16539); assay: p38 kinase in vitro assay, phosphorylation of biotinylated PHAS-I with gamma 32P-ATP; format: biochemical
T1 construct: The coding region of the human p38a cDNA was obtained by PCR-amplification from RNA isolated from the human monocyte cell line THP.1; GST (N); made in house; host or cells: E. coli DH10B
Summary of the method: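 MKK6-activated human p38α phosphorylates biotinylated PHAS-I with γ-32P-ATP in 25 mM HEPES pH 7.5, 10 mM Mg acetate, 50 μM unlabeled ATP, 1% DMSO, 30 °C for 1 h or overnight. Compounds at 100–0.001 μM (10-fold steps, triplicate); substrate captured on streptavidin filter plates and counted by scintillation.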

[3] = read-out: P38 alpha kinase IC50
[4] = U-937, TNF production, LPS-stimulated human U937 cells, read-out: U937 Cell IC50
[5] = read-out: P38 alpha kinase % inhib @ conc.
[6] = U-937, LPS-stimulated U937 cells, read-out: U937 IC50
[7] = p38α in vitro, PHAS-I assay procedure, read-out: p38^1 IC50

T1 sequence (Q16539 whole entry): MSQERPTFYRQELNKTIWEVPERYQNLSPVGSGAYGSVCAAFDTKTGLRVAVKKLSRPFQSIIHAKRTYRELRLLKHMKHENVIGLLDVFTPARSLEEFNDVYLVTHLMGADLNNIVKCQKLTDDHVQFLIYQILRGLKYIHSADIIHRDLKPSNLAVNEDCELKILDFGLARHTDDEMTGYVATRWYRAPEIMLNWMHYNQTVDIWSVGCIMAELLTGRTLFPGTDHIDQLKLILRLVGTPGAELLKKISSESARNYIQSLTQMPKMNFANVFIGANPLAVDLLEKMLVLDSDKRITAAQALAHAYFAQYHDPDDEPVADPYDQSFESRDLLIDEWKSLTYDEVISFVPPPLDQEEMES

Row | Structure (SMILES) | inhibition at 1 µM [1] | IC50 [2, 3] | other results
1 | CCNC(=O)NCc1[nH]nc(-c2ccc(F)cc2)c1-c1ccncc1 [Example B-0212] | 28% | 120 nM | 
2 | C[C@@H](NC(=O)c1cccc(F)c1)c1[nH]nc(-c2ccc(F)cc2)c1-c1ccncc1 [Example B-0517] | 52% | 94 nM | 
3 | C[C@@H](NC(=O)N(C)C)c1[nH]nc(-c2ccc(F)cc2)c1-c1ccncc1 [Example B-0407] | 27% | 760 nM | 
4 | C[C@@H](NC(=O)Nc1ccc(F)cc1)c1[nH]nc(-c2ccc(F)cc2)c1-c1ccncc1 [Example B-0406] | 35% | 540 nM | 
5 | CC(C)C(=O)N[C@H](C)c1[nH]nc(-c2ccc(F)cc2)c1-c1ccncc1 [Example B-0355] | 40% | 750 nM | 
6 | CC(C)(C)c1ccc(S(=O)(=O)NCc2[nH]nc(-c3ccc(F)cc3)c2-c2ccncc2)cc1 [Example B-0099] |  |  | IC50 [1, 4]: > 1000 nM; inhibition at 1 µM [2, 5]: 43%
7 | CC(=O)OC(C)(C)C(=O)NCc1[nH]nc(-c2ccc(F)cc2)c1-c1ccncc1 [Example B-0043] |  | 220 nM | IC50 [1, 4]: 540 nM
8 | COc1ccccc1C(=O)N[C@H](C)c1[nH]nc(-c2ccc(F)cc2)c1-c1ccncc1 [Example B-0367] | 23% | 1000 nM | 
9 | O=C(NCc1[nH]nc(-c2ccc(F)cc2)c1-c1ccncc1)[C@@H]1CCCN1C(=O)OCC1c2ccccc2-c2ccccc21 [Example B-0195] | 55% | 1030 nM | 
10 | O=C(NCc1[nH]nc(-c2ccc(F)cc2)c1-c1ccncc1)c1ccc(F)c(F)c1 [Example B-0276] | 26% | 1250 nM | 
11 | CCCCS(=O)(=O)NCc1[nH]nc(-c2ccc(F)cc2)c1-c1ccncc1 [Example B-0100] |  |  | IC50 [1, 4]: 5000 nM; inhibition at 1 µM [2, 5]: 75%
12 | CCN(CC)CCn1cc(-c2ccncc2)c(-c2ccc(F)cc2)n1 [Example A-284, N,N-diethyl-3-(4-fluorophenyl)-4-(4-pyridinyl)-1H-pyrazole-1-ethanamine] |  |  | IC50 [1, 6]: 509 nM; IC50 [2, 7]: 980 nM
13 | Cc1ccc(C(=O)NC(C)c2[nH]nc(-c3ccc(F)cc3)c2-c2ccncc2)cc1 (stereo not shown) [Example B-0671] |  | 6380 nM | U937 Cell % inhib @ conc. [1]: 36.0% @ 1.0 uM
14 | C#CCn1cc(-c2ccncc2)c(-c2ccc(F)cc2)n1 [Example A-294, 4-[3-(4-fluorophenyl)-1-(2-propynyl)-1H-pyrazol-4-yl]pyridine] |  |  | IC50 [1, 6]: 500 nM; IC50 [2, 7]: 15 nM
15 | CC(C)(C)C(=O)NC(Cc1ccccc1)c1[nH]nc(-c2ccc(F)cc2)c1-c1ccncc1 (stereo not shown) [Example B-0746] |  | 10 nM | U937 Cell % inhib @ conc. [1]: 22.0% @ 1.0 uM
16 | C[C@@H](NC(=O)c1cc2ccccc2s1)c1[nH]nc(-c2ccc(F)cc2)c1-c1ccncc1 [Example B-0496] | 16% | 830 nM | 
17 | CC(NC(=O)c1cc(F)cc(C(F)(F)F)c1)c1[nH]nc(-c2ccc(F)cc2)c1-c1ccncc1 (stereo not shown) [Example B-0690] |  | 27100 nM | U937 Cell % inhib @ conc. [1]: 36.0% @ 1.0 uM
18 | O=C(NCc1[nH]nc(-c2ccc(F)cc2)c1-c1ccncc1)Nc1cc(Cl)cc(Cl)c1 [Example B-0164] | 20% |  | inhibition at 10 µM ([2]; @ 10.0 uM, read-out: P38 alpha kinase % inhib @ conc.): 37%
19 | O=C(NCc1[nH]nc(-c2ccc(F)cc2)c1-c1ccncc1)c1cccc(OC(F)(F)F)c1 [Example B-0060] | 22% |  | inhibition at 1 µM [2, 5]: 73%
20 | CC(=O)O[C@@H](C)C(=O)N[C@H](C)c1[nH]nc(-c2ccc(F)cc2)c1-c1ccncc1 [Example B-0365] | 27% | 960 nM | 
21 | CC(=O)NCc1[nH]nc(-c2ccc(F)cc2)c1-c1ccncc1 [Example B-0044] |  | 140 nM | IC50 [1, 4]: 190 nM
22 | CCCCOc1ccc(S(=O)(=O)NCc2[nH]nc(-c3ccc(F)cc3)c2-c2ccncc2)cc1 [Example B-0129] | 31% |  | inhibition at 1 µM [2, 5]: 51%
23 | C[C@@H](NS(=O)(=O)c1cccc2nonc12)c1[nH]nc(-c2ccc(F)cc2)c1-c1ccncc1 [Example B-0477] | 96% | 1480 nM | 
24 | COc1ccc(C(=O)NCc2[nH]nc(-c3ccc(F)cc3)c2-c2ccncc2)cc1OC [Example B-0068] | 22% |  | inhibition at 1 µM [2, 5]: 72%
25 | CC(C)c1cc(C(C)C)c(C(=O)NCc2[nH]nc(-c3ccc(F)cc3)c2-c2ccncc2)c(C(C)C)c1 [Example B-0272] | 48% | 1810 nM | 
26 | C[C@@H](NS(=O)(=O)c1cccc2cccnc12)c1[nH]nc(-c2ccc(F)cc2)c1-c1ccncc1 [Example B-0443] | 71% | 2010 nM | 
